Patent publication US20090196912A1, “Pyridinylamines” (GPC Botech AG, priority 2004, published 2009)

Key:
RIP = biological target: T1, RIP (Homo sapiens, UniProt Q13546); assay: Generic kinase assay (33P-ATP, Myelin Basic Protein); assay type: biochemical; conditions: class symbol: % inhibition at 10 μM or IC50
T1 sequence (Q13546 1-671): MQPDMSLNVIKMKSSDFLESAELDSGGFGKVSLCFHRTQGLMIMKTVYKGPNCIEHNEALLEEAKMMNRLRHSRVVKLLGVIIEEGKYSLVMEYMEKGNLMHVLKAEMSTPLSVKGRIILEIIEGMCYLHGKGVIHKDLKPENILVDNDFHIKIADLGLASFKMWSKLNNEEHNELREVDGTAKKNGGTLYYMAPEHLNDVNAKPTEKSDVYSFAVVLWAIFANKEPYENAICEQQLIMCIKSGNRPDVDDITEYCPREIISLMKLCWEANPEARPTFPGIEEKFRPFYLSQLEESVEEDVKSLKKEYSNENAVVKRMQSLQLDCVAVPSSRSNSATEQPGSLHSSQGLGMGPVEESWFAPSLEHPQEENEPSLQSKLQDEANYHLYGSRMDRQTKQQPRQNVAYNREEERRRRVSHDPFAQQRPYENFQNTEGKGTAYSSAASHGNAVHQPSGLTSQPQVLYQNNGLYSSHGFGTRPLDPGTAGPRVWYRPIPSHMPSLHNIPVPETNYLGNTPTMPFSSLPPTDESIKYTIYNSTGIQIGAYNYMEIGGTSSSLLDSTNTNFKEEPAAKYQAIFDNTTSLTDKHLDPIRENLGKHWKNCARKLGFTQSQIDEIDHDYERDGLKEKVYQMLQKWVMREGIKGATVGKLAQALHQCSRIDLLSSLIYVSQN
Procedure, shortened: (§1)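 Myelin basic protein was phosphorylated with [γ-33P]ATP plus unlabelled ATP (4 µM in the three-fold concentrated mix) in Tris-HCl pH 7.5, MgCl2 and DTT. Kinase was titrated to about 10% ATP turnover, and reactions ran 1 h at room temperature before EDTA stop. Incorporated 33P was captured on filter plates washed with 0.75% H3PO4 and counted by scintillation.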

RICK = RICK (Homo sapiens, UniProt O43353); assay: as above; assay type: biochemical; conditions: 1 h; class symbol: % inhibition at 10 μM or IC50; read-out: Inhibitory effect on target RICK
Procedure, shortened: as §1

RICK, sequence (O43353 whole entry, species assumed): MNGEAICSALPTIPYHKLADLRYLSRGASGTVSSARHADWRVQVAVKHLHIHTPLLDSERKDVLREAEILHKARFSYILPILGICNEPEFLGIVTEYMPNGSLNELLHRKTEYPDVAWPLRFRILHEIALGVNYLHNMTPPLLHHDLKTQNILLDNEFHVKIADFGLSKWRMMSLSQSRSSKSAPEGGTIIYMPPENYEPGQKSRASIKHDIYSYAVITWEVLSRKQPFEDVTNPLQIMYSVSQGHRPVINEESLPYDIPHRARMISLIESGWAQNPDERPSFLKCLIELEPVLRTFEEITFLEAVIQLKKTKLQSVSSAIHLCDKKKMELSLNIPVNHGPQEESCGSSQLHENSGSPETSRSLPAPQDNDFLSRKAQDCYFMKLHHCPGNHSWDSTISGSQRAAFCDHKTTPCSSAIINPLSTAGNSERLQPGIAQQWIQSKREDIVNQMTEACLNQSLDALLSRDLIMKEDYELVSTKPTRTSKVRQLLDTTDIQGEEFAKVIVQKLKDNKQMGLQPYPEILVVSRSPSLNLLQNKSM

inhibition at 10 µM (RICK): 50 to 90%
SMILES: Clc1cccc(Nc2cncc(-c3ccncc3)c2)c1 [Compound 166, [3,4′]Bipyridinyl-5-yl-(3-chloro-phenyl)-amine]
Inhibitory effect on target RIP (RIP): A (A: 50-90% inhibition at 10 μM enzyme concentration)
